Test results from patent US20170014467A1, “COMPOSITION AND THE USE THEREOF” (INFINITUS (CHINA) COMPANY LTD., priority 2015, published 2017).

Key:
[1] = Animal body weights in the comparative test (Example 23); assay type: in vivo, SD rats; conditions: allopurinol 27 mg/kg + potassium oxonate 1.5 g/kg, mean ± SD
Method: (§1) 105 SPF grade SD rats, all of which are male and have a body weight of 200±20 (g), provided by Beijing Vital River Laboratory Animal Technology Co., Ltd. (license number: SOCK (Beijing) 2012-0001) were taken. Potassium oxonate, Jinan Chenghuishuangda Chemical Co., Ltd. product with the batch number of 12042001, was prepared with 0.1% CMC-Na into a suspension of a concentration of 0.15 g/ml in an amount for 3 d each time and the stock was stored at 4° C. Allopurinol, Tokyo chemical industry Co. Ltd. product with the batch number of MYRYA-IR, was prepared with 0.1% CMC-Na into a suspension of a concentration of […] in an amount for 3 d each time and the stock was stored at 4° C. . Uric acid and urea nitrogen test kit were provided by Centronic GmbH company in German, with the batch numbers of UF03121HH6G and UF01121GG66G respectively, and creatinine test kit was provided by Shanghai Lanyi Technology Co. Ltd. with the batch number of R102APA.
(§2) The same volume of drinking water was intragastrically administered to the normal control group every day, and the potassium oxonate was intragastrically administered to each of the rest groups of rats every morning at 1.5 g·kg^−1·d^−1; the same volume of physiological saline was intragastrically administered to the model group in the afternoon; the allopurinol was intragastrically administered to the allopurinol group at 27 mg·kg^−1·d^−1 in the afternoon; the samples to be tested of different doses diluted to the same volume were intragastrically administered to the Sample 1 of high-dose and low-dose groups and the Sample 2 of high-dose and low-dose groups in the afternoon.
(§3) The body weights of the rats were monitored, the blood samples were collected to measure the uric acid, creatinine and urea nitrogen before the experiments and at the 15th day of the administration, and the variance ratio of the serum uric acid levels was measured and calculated.
Experimental group: Sample 1—the composition prepared in Example 1.

[2] = Animal body weights in the hyperuricemia rat experiment (Example 22); assay type: in vivo, SD rats; conditions: allopurinol 27 mg/kg + potassium oxonate 1.5 g/kg, intragastric, mean ± SD
Method: as §1
SD rats were adapted for 5 days in the experimental environment, and randomly divided by body weight into normal control group, model group, allopurinol group, Sample 1 (the composition of Chinese herbal medicines and tuna extract prepared in Example 18) high-dose group and low-dose group and Sample 2 (the composition of Chinese herbal medicines prepared in Example 18 excluding tuna extract) high-dose group and low-dose group. According to the clinical dose, the intragastric doses of Samples 1 and 2 were 5 times larger (0.2 ml/100 g) and 30 times larger (1.25 ml/100 g) than the recommended amount for human body for the low-dose groups and high-dose groups, respectively.
as §2, §3

[3] = test system: hyperuricemia model of rats; experiment: Comparative test in potassium oxonate hyperuricemia rats: serum uric acid, urea nitrogen and creatinine (Example 23); assay type: in vivo; conditions: 15 d intragastric, allopurinol 27 mg/kg + potassium oxonate 1.5 g/kg, mean ± SD
Description: (license number: SOCK (Beijing) 2012-0001) were taken. […] Allopurinol, Tokyo chemical industry Co. […] Uric acid and urea nitrogen test kit were provided by Centronic GmbH company in German, with the batch numbers of UF03121HH6G and UF01121G[…] respectively, and creatinine test kit was provided by Shanghai Lanyi Technology Co. Ltd. with the batch number of […]. […] Modeling principle: the rats were intragastrically administered with the chemical uricase inhibitor, potassium oxonate to inhibit the uricase activity in the rats, which make the uric acid in their body unable to be decomposed and resulting in an increase of serum uric acid to replicate the hyperuricemia model of rats. The body weights of the rats were monitored, the blood samples were collected to measure the uric acid, creatinine and urea nitrogen before the experiments and at the 15th day of the administration, and the variance ratio of the serum uric acid levels was measured and calculated. Comparative Test […] Coicis semen 18, Cichorii Herba 8, […] Herba 8 and Pueraia Lobata Radix 8. The health food having the function of lowering uric acid provided in Comparative Example 2 of the present invention is prepared from the following components in parts by weight: Coicis semen 18, Motherwort 10, Cichorii Herba 8, […] Herba 8, Pueraia Lobata Radix 8 and tuna extract 0.1. […] Coicis semen 18, […] semen 9, Cichorii Herba 8, […] […]

[4] = test system: hyperuricemia model of rats; experiment: Potassium oxonate hyperuricemia model of rats: serum uric acid, urea nitrogen and creatinine after 15 d intragastric administration (Example 22); assay type: in vivo; conditions: allopurinol 27 mg/kg + potassium oxonate 1.5 g/kg
Method: 105 SPF grade SD rats, all of which are male and have a body weight of 200±20 (g), provided by Beijing Vital River Laboratory Animal Technology Co., Ltd. (license number: SOCK (Beijing) 2012-0001) were taken. Potassium oxonate, Jinan Chenghuishuangda Chemical Co., Ltd. product with the batch number of 12042001, was prepared with 0.1% CMC-Na into a suspension of a concentration of 0.15 g/ml in an amount for 3 d each time and the stock was stored at 4° C. Allopurinol, Tokyo chemical industry Co. Ltd. product with the batch number of MYRYA-IR, was prepared with 0.1% CMC-Na into a suspension of a concentration of 2.7 g/ml in an amount for 3 d each time and the stock was stored at 4° C. . Uric acid and urea nitrogen test kit were provided by Centronic GmbH company in German, with the batch numbers of UF03121HH6G and UF01121GG66G respectively, and creatinine test kit was provided by Shanghai Lanyi Technology Co. Ltd. with the batch number of R102APA. […]
The body weights of the rats were monitored, the blood samples were collected to measure the uric acid, creatinine and urea nitrogen before the experiments and at the 15th day of the administration, and the variance ratio of the serum uric acid levels was measured and calculated. […]

## Oc1ncnc2[nH]ncc12 [Allopurinol]
[1]; baseline, N=15
  animal body weights, Before Experiments: 290 ± 13 g
[1]
  animal body weights, 1 week after treatment: 322 ± 20 g
  animal body weights, 2 weeks after treatment: 352 ± 24 g
  animal body weights, 3 weeks after treatment: 366 ± 28 g
  animal body weights, 4 weeks after treatment: 387 ± 29 g
[2]; baseline, N=15
  animal body weights, Before Experiments: 290 ± 13 g
[2]
  animal body weights, 1 week after treatment: 322 ± 20 g
  animal body weights, 2 weeks after treatment: 352 ± 24 g
  animal body weights, 3 weeks after treatment: 366 ± 28 g
  animal body weights, 4 weeks after treatment: 387 ± 29 g
[3]; model group 31.0 ± 3.3
  Creatinine: 27.9 ± 2.2 µmol/L
[3]; model group 256.4 ± 41.3
  Uric Acid: 31.8 ± 10.3 µmol/L
[4]; model group 31.0 ± 3.3, mean ± SD
  Creatinine: 27.9 ± 2.2 µmol/L
[4]; model group 256.4 ± 41.3, mean ± SD
  Uric Acid: 31.8 ± 10.3 µmol/L
